Measurements as given in publication PMC4871512, “Drug-Based Lead Discovery: The Novel Ablative Antiretroviral Profile of Deferiprone in HIV-1-Infected Cells and in HIV-Infected Treatment-Naive Subjects of a Double-Blind, Placebo-Controlled, Randomized Exploratory Trial” (PLoS ONE, 2016).

What was measured:
HIV-1 = test: Proof-of-concept trial: HIV-1 RNA in plasma of treatment-naive HIV-infected subjects (ICR, ICD); format: in vivo, human; settings: for period for which the decrease of HIV-1 RNA persists off-drug: 7-day / 17-dose course, responsive cohort; for ICR relative to pre-treatment level: regimen-compliant responsive sub-group (Subjects 1, 5, 20, 24)
Procedure: Cell-free supernatants were used for p24 and HIV-1 RNA measurements. p24 core antigen in the supernatant was quantified by ELISA (Retrotek HIV-1 p24®; ZeptoMetrix Corp.; Buffalo, NY). HIV-1 RNA copy number in the supernatant of PBMC cultures and in plasma of trial subjects enrolled in the exploratory deferiprone trial was determined with a PCR-based and FDA-approved assay (Amplicor HIV-1 Monitor®; Roche Diagnostics Corp.; Indianapolis, IN). For clinical samples, the assay was used per the Standard Specimen Processing Procedure (sensitivity limit 400 copies/ml); for cell culture samples, the assay was used in both the Standard Specimen Processing and the UltraSensitive Specimen Processing Procedure (sensitivity limit 50 copies/ml). If not specified further, the term “log10” designates the amount of HIV-1 RNA in the dimensions [log10 / ml]. The Roche Amplicor HIV-1 DNA Test (Roche Diagnostics Corp.; Indianapolis, IN) was used for detection of HIV-1 DNA with the primer pair SK431/462, which amplifies a highly conserved region of the gag genome of HIV-1 subtype B DNA. […] Apoptotic DNA fragmentation was quantified flow-cytometrically, using a terminal deoxynucleotide transferase dUTP nick end-labeling (TUNEL) assay (APO-BRDU™; Phoenix Flow Systems; San Diego, CA). All experiments and assays were performed at least in duplicate.
Eligible for enrollment were volunteers of both genders, between 18 and 60 years old, healthy or HIV-infected with CD4 count ≥ 300/mm^3, viral load of ≥ 10,000 copies/ml, and absence of active infectious disease; AIDS-defining condition; febrile illness; liver or kidney disease; hypersensitivity to test material; and medication requirement. The protocol involved a screening visit; a pharmacokinetic and antiretroviral study requiring admission to a specialized Phase I research unit for a week of on-drug treatment, with multiple blood draws from a peripheral vein after oral intake of the first deferiprone dose, either 33 mg/kg or 50 mg/kg, and at least three repeat blood draws (first stage of protocol); an off-drug observation period of eight weeks, which comprised at least two repeat visits (second stage of protocol); and an exit visit. Enrollment complied with the applicable standard-of-care specified in the ‘Clinical Guidelines for the Management of HIV & AIDS in Adults and Adolescents’, National Department of Health, Republic of South Africa. Primary parameters included safety and tolerability (e.g. vital signs, laboratory variables, cardiac monitoring by ECG) and antiretroviral activity (e.g. RNA copies of HIV-1). Secondary parameters included pharmacokinetic variables (e.g. peak serum concentration) in serum, drawn from a peripheral vein at fixed times (0, 0.5, 1, 1.5, 2, 3, 4, 6, 9, 12) after the ingestion of the first dose on Day 1 of the study. The concentration of the nonconjugated, chelation-competent form of deferiprone in serum was determined by UV detection at 280 nm, after separation via reversed-phase HPLC under isocratic conditions. The lower limit of deferiprone quantitation was 1.466 μM, or 0.204 μg/ml. HIV-1 RNA was measured as described and used as log10-transformed parameter in all calculations.
26 consecutive subjects were randomly enrolled in the IRB-approved proof-of-concept trial and gave written informed consent to be studied (Supporting Information, S2 Text); recruitment of trial subjects commenced in November 2006 and follow-up terminated in April 2008.

[1] = cited from earlier work
[2] = after 8 weeks off-drug, P = 0.003

With `Cc1c(O)c(=O)ccn1C` [deferiprone, 3-hydroxy-1,2-dimethylpyridin-4-one] the “protocol-completing subjects with no viral load change” value (HIV-1; 99 mg group (33 mg/kg/dose orally three times per day)) was 66%, the “ICR after the one-week treatment” value (HIV-1; 99 mg group, Subjects 1, 2, 5, achieved threshold and had a viral response) was -0.36 log10 and the “ICR after the one-week treatment” value (HIV-1; 99 mg group, Subjects 4, 6, 8, did not achieve the ≥150 μM threshold) was “+0.23 log10”. The “ICD between threshold-achieving responders and non-achievers” value (HIV-1; 99 mg group, one-week treatment, P = 0.004) was 0.59 log10, the “within-subject variability of HIV-1 RNA reached after the one-week treatment” value (HIV-1; 99 mg/kg group) was -0.45 log10 and the “within-subject variability of HIV-1 RNA reached after the one-week treatment” value (HIV-1; 150 mg group) was -0.53 log10. For the same compound, the “protocol-completing subjects with no viral load change” value (HIV-1; 150 mg group (50 mg/kg/dose orally three times per day)) was 25%, the “ICR after the one-week treatment” value (HIV-1; 150 mg group, Subjects 20, 22, 24, cmax ≥150 μM) was -0.39 log10 and the “period for which the decrease of HIV-1 RNA persists off-drug” value (HIV-1) was 8 weeks. For the same compound, the “period for which the decrease of HIV-1 RNA persists off-drug” value (HIV-1; listed as Deferiprone) was “at least 8 weeks”, the “off-drug retention of the HIV-1 RNA reduction as multiple of the drug's half-life” value (HIV-1; 8 weeks off-drug after 17 doses) was “over 670 times” and the “average level of HIV-1 RNA” value (HIV-1; 'decrease' cohort, after 4 weeks off-drug) was 4.44 log10. For the same compound, the “average level of HIV-1 RNA” value (HIV-1; 'decrease' cohort, after 8 weeks off-drug) was 4.52 log10, the “average level of HIV-1 RNA” value (HIV-1; 'decrease' cohort, after 7 days (4.90 log10 initially)) was 4.53 log10 and the “average level of HIV-1 RNA” value (HIV-1; 'no-decrease' cohort, after 4 weeks off-drug) was 4.83 log10. The “average level of HIV-1 RNA” value (HIV-1; 'no-decrease' cohort, after 8 weeks off-drug) was 4.70 log10, the “average level of HIV-1 RNA” value (HIV-1; 'no-decrease' cohort, after 7 days (4.53 log10 initially)) was 4.74 log10 and the “ICR after 8 weeks off-drug” value (HIV-1; DTD 'decrease' cohort) was -0.31 log10. For the same compound, the “ICR at the end of the first stage (S1, Day 7 vs Day 1)” value (HIV-1; DTD 'decrease' cohort, N = 6) was -0.37 log10, the “ICR after 8 weeks off-drug” value (HIV-1; DTD 'no-decrease' cohort) was “+0.17 log10” and the “ICR at the end of the first stage (S1, Day 7 vs Day 1)” value (HIV-1; DTD 'no-decrease' cohort, N = 5) was “+0.21 log10”. The “ICR at the end of 8 weeks off-drug” value (HIV-1; Group A, cmax ≥150 μM) was -0.28 log10, the “intra-cohort response (ICR), HIV-1 RNA Day 7 relative to Day 1” value (HIV-1; Group A, cmax ≥150 μM on either dosage, N = 7, 7 days on-drug) was -0.27 log10 and the “subjects who achieved the threshold (cmax ≥150 μM) and showed a decline in viral load” value (HIV-1; Group A, one-week treatment) was 6 of the 7. The “viral load in the 4 subjects who did not achieve the threshold” value (HIV-1; Group B, one-week treatment) was “did not show a decline in viral load”, the “ICR at the end of 8 weeks off-drug” value (HIV-1; Group B, threshold-failing) was “+0.24 log10” and the “change in viral load during the one-week treatment” value (HIV-1; Subject 19, 150 mg group, cmax 128 μM) was “+0.02 log10”. For the same compound, the “ICD Group A vs Group B” value (HIV-1; [2]) was 0.52 log10, the “ICD regimen-compliant 'decrease' sub-group vs 'no-decrease' cohort” value (HIV-1; [2]) was 0.61 log10 and the “ICD 'decrease' vs 'no-decrease' cohort” value (HIV-1; after 8 weeks off-drug, P = 0.008) was 0.48 log10. For the same compound, the “intercohort difference (ICD) Group A vs Group B” value (HIV-1; after one week on-drug) was 0.44 log10, the “ICD 'decrease' vs 'no-decrease' cohort” value (HIV-1; end of first stage S1, P = 0.0001) was 0.58 log10 and the “intra-cohort response (ICR), HIV-1 RNA Day 7 relative to Day 1” value (HIV-1; human, in vivo) was “+0.17 log10”. The “ICR relative to pre-treatment level” value (HIV-1; after 8 weeks off-drug) was -0.38 log10, the “ICR relative to pre-treatment level” value (HIV-1; after 7 days on-drug) was -0.40 log10 and the “half-life in peripheral blood” value ([1]; human) was “approximately 2 hour”. For the same compound, the peak serum level ([1]; in vivo, 65.2 mg/kg) was “up to 450 µM”, the “difference in peak serum concentration (cmax) between UGT1A6-typed subjects” value ([1]; in vivo, po) was “up to 35%” and the “difference in total drug exposure over time (AUC0 - ∞) between UGT1A6-typed subjects” value ([1]; in vivo, po) was 38%.
